Measurements published in the supplement of paper PMC10307832.

Tests used:
Assay in all cases: relative viability (nuclei count vs DMSO), 5 days (fraction); higher = more cells survive
[1] = compound: Cc1ccc(C(=O)Nc2cccc(C(F)(F)F)c2)cc1Nc1cncc(C(N)=O)c1 [ALW-II-49-7] + COc1cccc2cc(-c3nc([C@H]4CC[C@H](C(=O)O)CC4)n4ncnc(N)c34)[nH]c12 [OSI-027] (partner 0.5 µM)
How it was run: (§1)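 A single step with final 0.05% Triton X-100, 1% formaldehyde and 1 ug/ml Hoechst fixed the cells and stained nuclei 5 days after treatment. Lung cancer cell lines in 1536-well plates had been treated by pin tool the day after seeding with one drug alone or a fixed anchor-drug dose plus five library-drug doses (not always all listed) in √10 steps, and nuclei were counted on 4× images. Relative viability is the ratio of nuclei in treated wells to nuclei in vehicle wells, taken as the median of duplicate plates.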

[2] = compound: Cc1ccc(C(=O)Nc2cccc(C(F)(F)F)c2)cc1Nc1cncc(C(N)=O)c1 [ALW-II-49-7] + N=C(N)NC(=N)NCCc1ccccc1 [Phenformin] (partner 250 µM)
How it was run: as §1

[3] = compound: C1CC1C(=O)NC2=NNC3=C2C=CC(=C3)C4=CC(=CC=C4)C(=O)NC5CC5 [XMD13-2] + CS(=O)(=O)N1CCN(Cc2cc3nc(-c4cccc5[nH]ncc45)nc(N4CCOCC4)c3s2)CC1 [Pictilisib] (partner 1 µM)
How it was run: as §1

[4] = compound: Cc1ccc(C(=O)Nc2cccc(C(F)(F)F)c2)cc1Nc1cncc(C(N)=O)c1 [ALW-II-49-7] + CS(=O)(=O)N1CCN(Cc2cc3nc(-c4cccc5[nH]ncc45)nc(N4CCOCC4)c3s2)CC1 [Pictilisib] (partner 1 µM)
How it was run: as §1

| Cell Line | relative viability ([1]; first compound 0.08 µM) | relative viability ([1]; first compound 0.253 µM) | relative viability ([1]; first compound 0.8 µM) | relative viability ([1]; first compound 2.53 µM) | relative viability ([1]; first compound 8 µM) | relative viability ([2]; first compound 0.08 µM) | relative viability ([2]; first compound 0.253 µM) | relative viability ([2]; first compound 0.8 µM) | relative viability ([2]; first compound 2.53 µM) | relative viability ([2]; first compound 8 µM) | relative viability ([3]; first compound 0.05 µM) | relative viability ([3]; first compound 0.1581 µM) | relative viability ([3]; first compound 0.5 µM) | relative viability ([3]; first compound 1.581 µM) | relative viability ([3]; first compound 5 µM) | relative viability ([4]; first compound 0.08 µM) | relative viability ([4]; first compound 0.253 µM) | relative viability ([4]; first compound 0.8 µM) | relative viability ([4]; first compound 2.53 µM) | relative viability ([4]; first compound 8 µM) |
| --- | --- | --- | --- | --- | --- | --- | --- | --- | --- | --- | --- | --- | --- | --- | --- | --- | --- | --- | --- | --- |
| NCI-H1651 | 0.668 | 0.629 | 0.543 | 0.687 | 0.572 | 0.345 | 0.312 | 0.376 | 0.317 | 0.321 | 0.819 | 0.477 | 0.661 | 0.64 | 0.548 | 0.525 | 0.38 | 0.329 | 0.491 | 0.572 |
| NCI-H1666 | 0.905 | 0.869 | 0.778 | 1.02 | 0.816 | 0.565 | 0.568 | 0.58 | 0.703 | 0.653 | 0.566 | 0.479 | 0.59 | 0.349 | 0.492 | 0.639 | 0.578 | 0.406 | 0.477 | 0.501 |
| NCI-H1734 | 0.602 | 0.652 | 0.55 | 0.556 | 0.534 | 0.345 | 0.359 | 0.385 | 0.381 | 0.335 | 0.558 | 0.45 | 0.444 | 0.423 | 0.389 | 0.491 | 0.42 | 0.491 | 0.48 | 0.499 |
| NCI-H1755 | 0.789 | 0.728 | 0.7 | 0.67 | 0.532 | 0.584 | 0.627 | 0.612 | 0.55 | 0.405 | 0.548 | 0.411 | 0.48 | 0.315 | 0.496 | 0.377 | 0.531 | 0.421 | 0.352 | 0.307 |
| NCI-H1792 | 0.805 | 0.774 | 0.609 | 0.149 | 0.376 | – | – | 0.228 | 0.147 | 0.258 | 0.29 | 0.249 | 0.266 | 0.284 | 0.265 | 0.232 | 0.21 | 0.215 | 0.183 | 0.258 |
| NCI-H1793 | 0.257 | 0.301 | 0.24 | 0.235 | 0.248 | 0.41 | 0.35 | 0.258 | 0.302 | 0.297 | 0.288 | 0.442 | 0.373 | 0.403 | 0.192 | 0.371 | 0.333 | 0.293 | 0.396 | 0.286 |
| NCI-H1915 | 0.662 | 0.653 | 0.573 | 0.49 | 0.381 | 0.333 | 0.32 | 0.364 | 0.353 | 0.342 | 0.981 | 0.884 | 1.07 | 0.9 | 0.919 | 0.945 | 1.18 | 0.966 | 0.818 | 0.645 |
| NCI-H1944 | 0.393 | 0.413 | 0.397 | 0.353 | 0.303 | 0.193 | 0.231 | 0.18 | 0.176 | 0.138 | 0.352 | 0.345 | 0.357 | 0.373 | 0.333 | 0.314 | 0.371 | 0.328 | 0.364 | 0.324 |
| NCI-H1975 | 0.555 | 0.785 | 0.72 | 0.553 | 0.486 | 0.393 | 0.461 | 0.39 | 0.415 | 0.412 | 0.319 | 0.3 | 0.333 | 0.322 | 0.325 | 0.282 | 0.308 | 0.232 | 0.287 | 0.281 |
| NCI-H1993 | 0.486 | 0.521 | 0.535 | 0.601 | 0.521 | 0.535 | 0.546 | 0.542 | 0.544 | 0.502 | 0.846 | 0.783 | 0.781 | 0.937 | 0.845 | 0.79 | 1.01 | 0.746 | 0.807 | 0.619 |
| NCI-H2009 | 0.615 | 0.67 | 0.532 | 0.408 | 0.406 | 0.463 | 0.49 | 0.444 | 0.334 | 0.283 | 0.838 | 0.945 | 0.904 | 0.822 | 0.566 | 0.836 | 0.828 | 0.783 | 0.575 | 0.438 |
| NCI-H2023 | 0.379 | 0.44 | 0.37 | 0.354 | 0.3 | 0.384 | 0.467 | 0.403 | 0.395 | 0.319 | 0.318 | 0.244 | 0.219 | 0.24 | 0.225 | 0.244 | 0.206 | 0.251 | 0.221 | 0.217 |
| NCI-H2085 | 0.778 | 0.748 | 0.625 | 0.806 | 0.738 | 0.754 | 0.639 | 0.677 | 0.889 | 0.693 | 0.828 | 0.445 | 0.444 | 0.444 | 0.481 | 0.499 | 0.496 | 0.445 | 0.5 | 0.537 |
| NCI-H2087 | 0.578 | 0.537 | 0.525 | 0.547 | 0.51 | 0.526 | 0.459 | 0.488 | 0.467 | 0.445 | 0.95 | 0.846 | 1.05 | 0.888 | 0.772 | 1.12 | 1.14 | 0.722 | 0.959 | 0.933 |
| NCI-H2126 | 0.664 | 0.64 | 0.65 | 0.607 | 0.653 | 0.507 | 0.549 | 0.505 | 0.515 | 0.485 | 0.508 | 0.448 | 0.503 | 0.518 | 0.502 | 0.493 | 0.473 | 0.514 | 0.471 | 0.502 |
| NCI-H2170 | 0.71 | 0.931 | 0.67 | 0.664 | 0.703 | 0.411 | 0.435 | 0.432 | 0.387 | 0.346 | 0.349 | 0.33 | 0.338 | 0.275 | 0.247 | 0.25 | 0.302 | 0.294 | 0.317 | 0.286 |
